Literature values, collected in patent US20080311196A1, “All Day Rhinitic Condition Treatment Regimen” (priority 2006, published 2008).

Legend:
histamine H1-receptor = histamine H1-receptor (Homo sapiens, UniProt P35367); conditions: E-isomer versus Z-isomer; fit in the histamine H1-receptor binding site
Sequence of histamine H1-receptor (P35367 whole entry, species assumed): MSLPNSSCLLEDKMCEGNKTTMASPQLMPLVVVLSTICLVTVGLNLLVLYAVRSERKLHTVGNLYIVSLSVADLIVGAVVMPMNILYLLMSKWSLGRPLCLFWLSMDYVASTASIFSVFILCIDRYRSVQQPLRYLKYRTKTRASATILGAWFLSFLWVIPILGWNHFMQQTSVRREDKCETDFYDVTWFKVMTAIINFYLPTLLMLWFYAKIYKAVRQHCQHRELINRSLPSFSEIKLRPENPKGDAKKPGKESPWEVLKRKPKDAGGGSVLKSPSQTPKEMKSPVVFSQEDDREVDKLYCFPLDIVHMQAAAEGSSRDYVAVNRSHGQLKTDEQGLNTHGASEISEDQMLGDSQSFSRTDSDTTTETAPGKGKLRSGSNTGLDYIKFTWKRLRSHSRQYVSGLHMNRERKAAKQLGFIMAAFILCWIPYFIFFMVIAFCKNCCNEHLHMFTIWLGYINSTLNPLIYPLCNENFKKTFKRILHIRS

Row | Molecule | time of maximal pharmacological sedation after dosing (after dosing) [hour] | persistence of sedation following dosing (following dosing, usually not longer than) [h] | duration of inhibition of the symptoms of rhinitis (single dose) | potency relative to Z-triprolidine (histamine H1-receptor)
1 | CN(C)CCC(c1ccc(Cl)cc1)c1ccccn1 (stereo not shown) [chlorpheniramine] | 3 to 4 | 6 to 8 | more than 24 hours | 
2 | E-triprolidine |  |  |  | E-triprolidine, for example, is 1000-fold
